Laboratory results published in patent US8138188B2, “Melanocortin type 4 receptor agonist piperidinoylpyrrolidines” (Pfizer Inc., priority 2006, dated 2012).

What was measured:
[1] = target: T1, human MC3 receptor (Homo sapiens, UniProt P41968); test: In vitro agonist potency (EC50) against melanocortin receptor type 3, cAMP in recombinant cell line; format: cell-based; settings: cell line stably transfected with human MC3, 1 hour at 37° C.
T1 construct: stably transfected with full length cDNA encoding human MC1 or MC3 receptors; expressed in transfected cells; host or cells: Chinese hamster ovary cell line (MC3; 'respectively')
T1 sequence (P41968 whole entry): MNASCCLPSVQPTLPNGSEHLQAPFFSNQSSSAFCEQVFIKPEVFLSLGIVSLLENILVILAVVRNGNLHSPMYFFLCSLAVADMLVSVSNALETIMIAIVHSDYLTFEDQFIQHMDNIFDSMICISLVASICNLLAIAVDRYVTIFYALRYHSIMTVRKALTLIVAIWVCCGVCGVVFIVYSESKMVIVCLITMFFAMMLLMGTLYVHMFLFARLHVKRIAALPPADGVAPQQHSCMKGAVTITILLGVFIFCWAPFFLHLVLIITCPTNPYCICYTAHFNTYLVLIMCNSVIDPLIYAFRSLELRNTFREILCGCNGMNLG
Protocol: Measurement of In Vitro Agonist Potency (EC50) of Compounds Against Melanocortin Receptors Type 1 and 3 (MC1 and MC3).
Activation of melanocortin (MC) receptors by agonists results in activation of intracellular adenylate cyclase enzymes that synthesise the second messenger signalling molecule, adenosine 3′,5′-cyclic monophosphate (cAMP). Changes in cAMP levels following treatment of recombinant MC1 and MC3 cell lines with test compound were measured and an MC1 and MC3 potency estimate (EC50) calculated as follows: […]
Human embryonic kidney (HEK) or Chinese hamster ovary cell lines stably transfected with full length cDNA encoding human MC1 or MC3 receptors, respectively, were established using standard molecular biology methods. Test compounds were dissolved in dimethyl sulfoxide (DMSO) at 4 mM. 11 point half log unit increment dilution series of test compound, typically starting at 50 uM were prepared in a buffer comprised of phosphate buffered saline (PBS), 2.5% DMSO and 0.05% pluronic F-127 surfactant. Freshly cultured cells at 80-90% confluence were harvested and re-suspended in Dulbecco's Modified Eagle's Medium (DMEM). Cells (10,000 for MC3, 20,000 for MC1) were added to the test compound dilution series in a 384 well assay plate and incubated for 1 hour at 37° C. The relative cAMP concentration in each well was then measured using a β-galactosidase enzyme fragment complementation method purchased in kit form as the Discoverx cAMP II kit from GE Healthcare/Amersham Biosciences UK. In the case of MC1,3-Isobutyl-1-methylxanthine (IBMX) at a concentration of 750 μM was included in DMEM as the cells were re-suspended for assay. […] Sigmoidal curves were fitted to plots of log10 inhibitor concentration vs percent effect using a custom made software application called SIGHTS and EC50 estimates determined by the software as the concentration of test compound giving an effect half way between the bottom and top assymptopes of the sigmoidal dose response curve. Each experiment included an EC50 determination for alpha melanocyte stimulating hormone, which was used as a standard to track assay consistency and allow fair comparison between EC50 estimates obtained in different experiments.

[2] = target: MC4 receptor (Homo sapiens, UniProt P32245); test: MC4 functional agonist potency (EC50), assay protocol E of US2005/0176772 / WO 2005/077935; format: cell-based; settings: functional potency at the MC4 receptor
Chain of MC4 receptor (P32245 whole entry): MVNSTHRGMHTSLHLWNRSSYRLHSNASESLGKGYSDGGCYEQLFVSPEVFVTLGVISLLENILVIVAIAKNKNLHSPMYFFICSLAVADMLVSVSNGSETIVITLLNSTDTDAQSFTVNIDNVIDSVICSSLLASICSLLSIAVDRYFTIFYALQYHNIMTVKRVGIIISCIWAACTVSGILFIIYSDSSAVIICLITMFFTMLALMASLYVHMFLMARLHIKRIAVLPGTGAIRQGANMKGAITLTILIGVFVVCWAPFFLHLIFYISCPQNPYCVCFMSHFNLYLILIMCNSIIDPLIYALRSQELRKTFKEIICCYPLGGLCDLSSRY
Protocol: The compounds of formula (I) of the present invention have utility as MCR4 agonists in the treatment of various disease states.
MC5 and MC4 EC50 activity was determined as described by assay protocols D and E, respectively, in US2005/0176772 (pages 28-30).

[3] = In vitro metabolism rate determination, human liver microsome (HLM) assay; format: in vitro ADME; settings: human liver microsomes, substrate 1 μM; read-out: HLM (intrinsic clearance)
Source text: In vitro Metabolism Rate Determination (Human Liver Microsome (HLM); Rat Liver Microsome (RLM) Assay)
Many drugs are metabolised by the cytochrome P450 mono-oxygenase system. This enzyme is found in high concentrations in the liver and is bound to the endoplasmic reticulum of the hepatocyte. The enzyme system can be obtained in semi-purified state by the preparation of the hepatic microsomal fractions. Determining a compound's in vitro half-life in such a system provides a useful indicator of metabolic stability.
Methodology For In Vitro Rate Determination Using Hepatic & Supermix Microsomes
The method outlined below is for a total incubation volume of 1.5 ml.
1. The following mixture is prepared in a test tube:
2. Defrost microsomes at room temperature and add sufficient microsomes to give a final concentration of 0.5 nmol cytochrome P450/ml of incubation e.g. for a 1.5 ml incubation, the volume of microsomes to be added is:
[formula] 3. Add sufficient MilliQ water to give a total incubation volume of 1.425 ml. 4. Remove 237.5 μl of incubation mix and place in test tube for PNA positive control. Add 2.5 μl of PNA solution, whirlimix, and put tube into a rack in the thermostatically controlled shaking water bath 5. Remove 100 μl for no substrate control and dispense in test tube. Place test tube in a rack in the thermostatically controlled shaking water bath. 6. Add substrate to the incubation. The substrate should be at an initial concentration of 1 μM. The volume of substrate required in the remaining 1.162.5 ml incubation is calculated as follows:
[formula] • N.B. The volume of organic solvent added should not exceed 0.1% of the total incubation volume. 7. Remove 100 μl of incubation mix into test tube for no cofactor control. Whirlimix and put into a rack in the thermostatically controlled shaking water bath. 8. Pre-incubate the tube containing the incubation mix, also positive control and no cofactor tubes in the thermostatically controlled shaking water bath set at 37° C. for approx 5 min. 9. Add NADP to initiate reaction (75 μl to each 1.162.5 ml incubation mix, 12.5 μl to positive control tube and 5 μl to no substrate tube) and take first time point immediately. The PNA positive control, no cofactor control and no substrate tubes are incubated for the total incubation time. 10. Remove 100 μl aliquots up to 9 different sampling points from 0 to 60 min (usually 0, 3, 5, 10, 15, 20, 30, 45 & 60 min) and terminate reaction. Longer incubation times can be used, but, after 120 min the microsomes deteriorate. The reaction may be terminated by addition of organic solvent, acid or base. At the end of the incubation process the no cofactor and no substrate controls in a similar manner i.e. terminate with the same reagent. 11. PNA Positive Control Procedure: • After the final sample has been taken, remove the positive control and add 1 ml 20% TCA to this tube. Also prepare a tube containing 250 μl of a PNP standard at 50 μM, and add 1 ml 20% TCA. Whirlimix both tubes and leave for approx 5 min to allow the protein to precipitate. • Centrifuge both tubes for approx 5 min in an instrument set at 3500 rpm. Remove 1 ml of supernatant and place into clean test tubes, discard the remainder. • Add 1 ml 10M NaOH to the supernatant, whirlimix, and leave to stand for approx min. Blank spectrophotometer with distilled water at 400 nm then measure absorbance of the PNP standard against distilled water. The microsomal 4-nitroanisole O-demethylase activity is calculated as follows: Calculation of Results
[formula] • The activity value from the incubation MUST be equal to or greater than 85% of the mean value of the batch used for the incubation to be valid. If this criteria is not met, then the incubation must be repeated. 11. Analyse samples (including no cofactor and no substrate control) by a specific assay for the substrate to determine the disappearance kinetics. Analysis Of Data […]

Row | Structure (SMILES) | EC50 [1] [nM] | EC50 [2] [nM] | microsomal CLint at 1 μM [3] [µL/min/mg]
1 | C[C@@H]1CN(C(=O)[C@@H]2CN(c3ccc(C#N)cn3)C[C@H]2c2ccc(Cl)cn2)C[C@H](C)[C@@]1(O)c1ccc(F)cc1 [Example 1, 6-[(3S,4S)-3-(5-Chloropyridin-2-yl)-4-{[(3R,4R,5S)-4-(4-fluorophenyl)-4-hydroxy-3,5-dimethylpiperidin-1-yl]carbonyl}pyrrolidin-1-yl]nicotinonitrile] | 43.9 | < 0.52 | < 7
2 | C[C@@H]1CN(C(=O)[C@@H]2CN(c3ccc(C#N)nn3)C[C@H]2c2ccc(Cl)cn2)C[C@H](C)[C@@]1(O)c1ccc(F)cc1 [Example 2, 6-[(3S,4S)-3-(5-Chloropyridin-2-yl)-4-{[(3R,4R,5S)-4-(4-fluorophenyl)-4-hydroxy-3,5-dimethylpiperidin-1-yl]carbonyl}pyrrolidin-1-yl]pyridazine-3-carbonitrile] | 4.26 | 4.53 | < 12
3 | COc1ccc(N2C[C@@H](C(=O)N3C[C@@H](C)[C@](O)(c4ccc(F)cc4)[C@@H](C)C3)[C@H](c3ccc(Cl)cn3)C2)nn1 [Example 4, (3R,4R,5S)-1-{[(3S,4S)-4-(5-chloropyridin-2-yl)-1-(6-methoxypyridazin-3-yl)pyrrolidin-3-yl]carbonyl}-4-(4-fluorophenyl)-3,5-dimethylpiperidin-4-ol] | 55.9 |  | 60
4 | C[C@@H]1CN(C(=O)[C@@H]2CN(c3ccc(Cl)nn3)C[C@H]2c2ccc(F)cn2)C[C@H](C)[C@@]1(O)c1ccc(Cl)cc1 [Example 5, (3R,4R,5S)-4-(4-chlorophenyl)-1-{[(3S,4S)-1-(6-chloropyridazin-3-yl)-4-(5-fluoropyridin-2-yl)pyrrolidin-3-yl]carbonyl}-3,5-dimethylpiperidin-4-ol] | 203 | 137 | < 7
5 | C[C@@H]1CN(C(=O)[C@@H]2CN(c3ccc(=O)[nH]n3)C[C@H]2c2ccc(F)cn2)C[C@H](C)[C@@]1(O)c1ccc(Cl)cc1 [Example 6, 6-[(3S,4S)-3-{[(3R,4R,5S)-4-(4-chlorophenyl)-4-hydroxy-3,5-dimethylpiperidin-1-yl]carbonyl}-4-(5-fluoropyridin-2-yl)pyrrolidin-1-yl]pyridazin-3(2H)-one] | 1460 | 18.9 | 
6 | C[C@@H]1CN(C(=O)[C@@H]2CN(c3ccc(=O)n(C)n3)C[C@H]2c2ccc(F)cn2)C[C@H](C)[C@@]1(O)c1ccc(Cl)cc1 [Example 7, 6-[(3S,4S)-3-{[(3R,4R,5S)-4-(4-chlorophenyl)-4-hydroxy-3,5-dimethylpiperidin-1-yl]carbonyl}-4-(5-fluoropyridin-2-yl)pyrrolidin-1-yl]-2-methylpyridazin-3(2H)-one] | 1600 | 40 | 21
7 | C[C@@H]1CN(C(=O)[C@@H]2CN(c3cncc(F)c3)C[C@H]2c2ccc(Cl)cn2)C[C@H](C)[C@@]1(O)c1ccccn1 [Example 8, (3R,4R,5S)-1-{[(3S,4S)-4-(5-chloropyridin-2-yl)-1-(5-fluoropyridin-3-yl)pyrrolidin-3-yl]carbonyl}-3,5-dimethyl-4-pyridin-2-ylpiperidin-4-ol] | 1090 | 27.5 | > 440
8 | C[C@@H]1CN(C(=O)[C@@H]2CN(c3cccnn3)C[C@H]2c2ccc(Cl)cn2)C[C@H](C)[C@@]1(O)c1ccccn1 [Example 9, (3R,4R,5S)-1-{[(3S,4S)-4-(5-chloropyridin-2-yl)-1-pyridazin-3-ylpyrrolidin-3-yl]carbonyl}-3,5-dimethyl-4-pyridin-2-ylpiperidin-4-ol] | 520 | 39.3 | 240
9 | C[C@@H]1CN(C(=O)[C@@H]2CN(c3ccc(=O)n(C)n3)C[C@H]2c2ccc(Cl)cn2)C[C@H](C)[C@@]1(O)c1ccc(Cl)cn1 [Example 10] | 493 | 11.9 | 20.5
10 | COc1ccc(C2CN(c3ccc(C#N)nn3)CC2C(=O)N2CC(C)C(O)(c3ccc(F)cc3)C(C)C2)cn1 (stereo not shown) [Example 16] | 323 | 34.3 | < 45.5
11 | C[C@@H]1CN(C(=O)[C@@H]2CN(c3ccc(=O)n(C)n3)C[C@H]2c2ccc(Cl)cn2)C[C@H](C)[C@@]1(O)C1CCCCC1 [Example 17] | 54.9 | 1.59 | > 440
12 | C[C@@H]1CN(C(=O)[C@@H]2CN(c3ccc(=O)n(C)n3)C[C@H]2c2ccc(Cl)cn2)C[C@H](C)[C@@]1(O)C1CC1 [Example 18] | > 8520 | 55.5 | 67
13 | CC1CN(C(=O)C2CN(c3ccc(=O)n(C)n3)CC2c2ccc(Cl)cn2)CC(C)C1(O)c1ccc(F)c(F)c1 (stereo not shown) [Example 19] | 425 | 6.5 | 21
14 | COc1ccc(C2(O)C(C)CN(C(=O)C3CN(c4ccc(=O)n(C)n4)CC3c3ccc(Cl)cn3)CC2C)cc1 (stereo not shown) [Example 20] | 1120 | 16.4 | 31
15 | CC1CN(C(=O)C2CN(c3ccc(=O)n(C)n3)CC2c2ccc(Cl)cn2)CC(C)C1(O)c1ccccc1 (stereo not shown) [Example 21] | 283 | 2.81 | 144
16 | C[C@@H]1CN(C(=O)[C@@H]2CN(c3ccc(=O)n(C)n3)C[C@H]2c2ccc(Cl)cn2)C[C@H](C)[C@@]1(O)c1ccccn1 [Example 22] | 1050 | 19.8 | 179
17 | CC1CN(C(=O)C2CN(c3ccc(=O)[nH]n3)CC2c2ccc(F)cn2)CC(C)C1(O)c1ccccc1 (stereo not shown) [Example 37] | 325 |  | 19.5
18 | CC1CN(C(=O)C2CN(c3ccc(=O)n(C)n3)CC2c2ccc(F)cn2)CC(C)C1(O)c1ccccc1 (stereo not shown) [Example 39] | 2100 |  | 95
19 | COc1ccc(C2CN(c3ccc(=O)[nH]n3)CC2C(=O)N2CC(C)C(O)(c3ccc(F)cc3)C(C)C2)nc1 (stereo not shown) [Example 42] | > 20300 |  | 25
